Test results from patent US9527849B2, “Salt and polymorph of pyrazolopyrimidinone compound, and pharmaceutical composition containing the same, preparation method and use thereof” (TOPHARMAN SHANGHAI CO., LTD., priority 2011, dated 2016).
pIC50: −log10 of the molar value. Entries after “also recorded” stand apart in the source; their conditions may differ. Counter-ions that a name gives are not always drawn. Like-named read-outs stand apart in the source and are kept apart here. One block for each molecule: values may come before it.

Legend:
[1] = biological target: PDE8; test: In vitro activity against PDE isoenzyme; format: biochemical; settings: for pIC50: PDE8
[2] = biological target: PDE7; test: In vitro activity against PDE isoenzyme; format: biochemical; settings: for pIC50: PDE7
[3] = test system: rats cavernous body pressure/arterial blood pressure (ICP/BP); test: Erectile dysfunction (ED) efficacy trial in vivo in rats, method of WO2007056955; settings: Dose 10 mg/kg, after the administration
[4] = biological target: PDE4; test: In vitro activity against PDE isoenzyme; format: biochemical; settings: for pIC50: PDE4
[5] = biological target: PDE1; test: In vitro activity against PDE isoenzyme; format: biochemical; settings: for pIC50: PDE1
[6] = Impact factor stability test (high temperature, high humidity, light exposure); format: physicochemical; settings: for chemical stability (in words): high temperature, high humidity
Text: The basic compounds of compound Z and the maleate thereof were selected to compare the chemical stability through an impact factor test, and results were shown in Table 8: […]

[7] = Hygroscopicity, moisture weight gain in desiccator; format: physicochemical; settings: for Moisture weight gain (%): relative humidity 92.5%, 48 hours, room temperature
Method: The hygroscopicities of various salts of compound Z were studied. A certain amount of the sample was placed in a precisely-weighted glass weighing bottle with a stopper to accurately weight. Then the open glass weighing bottle was placed in a desiccator (the saturated potassium nitrate solution was placed at the lower part of the desiccator, the relative humidity was 92.5%) and stood for 48 hours at room temperature. And then the glass weighing bottle was covered with the stopper and weighted again. The absorbent weight can be calculated.

[8] = Comparison of solubility in water and buffer solutions; format: physicochemical; settings: for solubility (in words): in water and in other solvents; for solubility: thermodynamic from solid
Method: The basic compound Z and various salts of compound Z were selected to compare the solubility. Appropriate amount of sample was weighed, placed in glass tubes. The predetermined solvent was added gradually and the extension of clear of the solution was observed. The solvent included the follows: pure water (pH 6.2), hydrochloric acid solution (pH1.0), a standard potassium hydrogen phthalate buffer solution (pH 4.0), and a mixed phosphate buffer solution (pH 6.86).

[9] = Comparison of appearance, characters and odor; format: physicochemical
Text: The basic compound Z and various salts of compound Z were selected to compare the appearance and characters.

[10] = biological target: PDE2 (Homo sapiens, UniProt O00408); test: In vitro activity against PDE isoenzyme; format: biochemical
Chain of PDE2 (O00408 whole entry): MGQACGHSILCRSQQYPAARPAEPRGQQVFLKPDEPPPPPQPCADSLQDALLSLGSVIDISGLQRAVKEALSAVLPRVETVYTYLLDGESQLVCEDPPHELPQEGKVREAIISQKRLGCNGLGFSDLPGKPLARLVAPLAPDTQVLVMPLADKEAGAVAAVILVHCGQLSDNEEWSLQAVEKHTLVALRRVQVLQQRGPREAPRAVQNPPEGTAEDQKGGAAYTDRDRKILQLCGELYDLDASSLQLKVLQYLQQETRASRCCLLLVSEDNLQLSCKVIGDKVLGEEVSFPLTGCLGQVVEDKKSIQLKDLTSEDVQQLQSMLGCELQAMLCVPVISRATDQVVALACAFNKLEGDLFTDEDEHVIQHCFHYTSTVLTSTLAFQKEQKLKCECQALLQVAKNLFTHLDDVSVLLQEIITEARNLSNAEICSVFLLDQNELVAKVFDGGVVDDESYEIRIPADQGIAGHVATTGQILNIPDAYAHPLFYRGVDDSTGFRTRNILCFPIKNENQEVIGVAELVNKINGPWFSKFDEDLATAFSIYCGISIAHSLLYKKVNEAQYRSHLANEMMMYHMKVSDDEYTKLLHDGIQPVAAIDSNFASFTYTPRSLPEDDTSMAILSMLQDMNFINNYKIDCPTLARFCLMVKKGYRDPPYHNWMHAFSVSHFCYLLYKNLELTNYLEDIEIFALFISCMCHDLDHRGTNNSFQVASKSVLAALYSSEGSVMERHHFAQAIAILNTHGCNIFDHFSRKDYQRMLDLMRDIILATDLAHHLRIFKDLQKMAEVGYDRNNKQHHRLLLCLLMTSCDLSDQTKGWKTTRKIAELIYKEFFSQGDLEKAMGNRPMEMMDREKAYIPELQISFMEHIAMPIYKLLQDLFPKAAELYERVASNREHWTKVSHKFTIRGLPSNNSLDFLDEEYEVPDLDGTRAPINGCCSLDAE

[11] = biological target: PDE9 (Homo sapiens, UniProt O76083); test: In vitro activity against PDE isoenzyme; format: biochemical
Chain of PDE9 (O76083 whole entry): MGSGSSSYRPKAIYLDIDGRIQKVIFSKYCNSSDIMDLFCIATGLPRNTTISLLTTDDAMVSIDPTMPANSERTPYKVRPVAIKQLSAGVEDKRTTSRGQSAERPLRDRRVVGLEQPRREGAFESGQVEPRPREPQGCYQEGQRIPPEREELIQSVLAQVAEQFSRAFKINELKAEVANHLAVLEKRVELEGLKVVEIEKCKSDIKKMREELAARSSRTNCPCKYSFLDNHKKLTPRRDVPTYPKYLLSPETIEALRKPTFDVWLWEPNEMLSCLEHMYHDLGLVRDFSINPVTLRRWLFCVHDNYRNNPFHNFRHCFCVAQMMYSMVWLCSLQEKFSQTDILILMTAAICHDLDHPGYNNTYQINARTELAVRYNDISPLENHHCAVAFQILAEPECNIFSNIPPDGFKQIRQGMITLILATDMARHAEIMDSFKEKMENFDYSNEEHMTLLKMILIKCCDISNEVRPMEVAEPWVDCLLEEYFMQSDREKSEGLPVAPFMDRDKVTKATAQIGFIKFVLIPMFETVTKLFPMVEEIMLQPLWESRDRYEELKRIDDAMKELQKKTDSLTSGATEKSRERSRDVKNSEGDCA

[12] = biological target: PDE3; test: In vitro activity against PDE isoenzyme; format: biochemical
[13] = biological target: PDE10 (Homo sapiens, UniProt Q9Y233); test: In vitro activity against PDE isoenzyme; format: biochemical
Chain of PDE10 (Q9Y233 whole entry): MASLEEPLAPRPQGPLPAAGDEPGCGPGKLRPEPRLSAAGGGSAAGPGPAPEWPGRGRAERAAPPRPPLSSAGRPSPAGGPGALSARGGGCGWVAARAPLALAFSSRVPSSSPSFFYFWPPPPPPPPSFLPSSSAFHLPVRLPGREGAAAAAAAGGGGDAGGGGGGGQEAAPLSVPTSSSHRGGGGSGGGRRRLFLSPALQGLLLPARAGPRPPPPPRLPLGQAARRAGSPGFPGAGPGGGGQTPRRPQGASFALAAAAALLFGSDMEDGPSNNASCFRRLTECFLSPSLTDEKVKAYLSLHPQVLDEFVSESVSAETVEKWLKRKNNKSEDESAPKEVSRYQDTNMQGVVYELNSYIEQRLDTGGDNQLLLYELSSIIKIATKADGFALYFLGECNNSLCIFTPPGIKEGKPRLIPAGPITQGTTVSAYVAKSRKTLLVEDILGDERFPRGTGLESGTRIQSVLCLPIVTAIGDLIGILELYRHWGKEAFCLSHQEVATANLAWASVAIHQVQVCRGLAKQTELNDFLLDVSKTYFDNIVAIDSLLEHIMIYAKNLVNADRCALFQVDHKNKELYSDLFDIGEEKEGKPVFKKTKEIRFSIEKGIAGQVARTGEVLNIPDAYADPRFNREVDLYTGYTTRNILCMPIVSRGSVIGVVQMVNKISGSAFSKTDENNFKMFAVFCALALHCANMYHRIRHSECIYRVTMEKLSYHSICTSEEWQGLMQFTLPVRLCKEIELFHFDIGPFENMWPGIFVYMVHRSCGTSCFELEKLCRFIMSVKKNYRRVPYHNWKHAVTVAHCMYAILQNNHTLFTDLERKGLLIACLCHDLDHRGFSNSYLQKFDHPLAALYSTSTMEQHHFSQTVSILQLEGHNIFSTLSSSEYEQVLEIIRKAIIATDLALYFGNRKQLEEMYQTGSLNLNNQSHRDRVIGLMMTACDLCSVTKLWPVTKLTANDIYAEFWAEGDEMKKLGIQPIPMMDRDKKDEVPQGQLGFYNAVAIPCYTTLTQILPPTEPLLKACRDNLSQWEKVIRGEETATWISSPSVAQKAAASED

[14] = biological target: PDE6; test: In vitro activity against PDE isoenzyme; format: biochemical
[15] = biological target: PDE5 (Homo sapiens, UniProt O76074); test: In vitro activity against PDE isoenzyme; format: biochemical
[16] = test system: rats with pulmonary arterial hypertension; test: Pulmonary arterial hypertension (PAH) rats, single intravenous administration; format: in vivo; settings: single intravenous administration of 1 mg/kg, FIG. 18
Text: (§1) The effects of maleate of compound Z on pulmonary artery pressure of pulmonary arterial hypertension rats were studied according to the method described in the reference (J Pharmacol Sci, 111, 235-243 (2009)).

[17] = biological target: PDE11 (Homo sapiens, UniProt Q9HCR9); test: In vitro activity against PDE isoenzyme; format: biochemical
Chain of PDE11 (Q9HCR9 whole entry): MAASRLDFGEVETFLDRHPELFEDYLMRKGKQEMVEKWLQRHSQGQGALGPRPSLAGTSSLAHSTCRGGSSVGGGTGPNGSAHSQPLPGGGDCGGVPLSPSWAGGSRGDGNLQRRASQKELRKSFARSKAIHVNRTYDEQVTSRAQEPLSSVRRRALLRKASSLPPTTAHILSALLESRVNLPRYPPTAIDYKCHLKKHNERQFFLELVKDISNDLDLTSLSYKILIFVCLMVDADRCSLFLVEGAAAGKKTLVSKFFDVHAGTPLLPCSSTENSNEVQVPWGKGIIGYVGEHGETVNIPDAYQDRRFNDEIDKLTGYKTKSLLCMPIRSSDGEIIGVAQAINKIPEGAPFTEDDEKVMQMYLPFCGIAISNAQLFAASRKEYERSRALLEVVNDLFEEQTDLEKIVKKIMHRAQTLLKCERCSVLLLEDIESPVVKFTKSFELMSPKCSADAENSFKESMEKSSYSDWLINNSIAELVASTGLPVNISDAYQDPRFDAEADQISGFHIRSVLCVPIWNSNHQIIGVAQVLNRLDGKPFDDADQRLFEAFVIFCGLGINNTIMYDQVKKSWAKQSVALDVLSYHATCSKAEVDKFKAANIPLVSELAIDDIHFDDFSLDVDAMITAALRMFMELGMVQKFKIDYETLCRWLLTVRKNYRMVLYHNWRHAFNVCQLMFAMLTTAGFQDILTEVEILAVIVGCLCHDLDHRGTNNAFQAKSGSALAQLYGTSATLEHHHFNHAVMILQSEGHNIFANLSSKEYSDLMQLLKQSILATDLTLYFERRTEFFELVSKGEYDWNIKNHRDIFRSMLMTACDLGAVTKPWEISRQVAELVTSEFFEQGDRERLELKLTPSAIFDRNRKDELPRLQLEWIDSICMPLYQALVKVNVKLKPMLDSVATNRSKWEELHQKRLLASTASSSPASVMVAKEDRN

[18] = Comparison of salts and crystalline forms (crystal water, static, stability, component, crystalline form); format: physicochemical
[19] = test system: cavernous pressure in rats; test: Cavernous pressure in rats induced by electric stimulus to the erectile nerve (ED); format: in vivo; settings: rat, 2.50-5.00 mg/kg through duodenum; FIG. 19
Text: The effect of maleate of compound Z on the cavernous pressure variation in rats induced by the electric stimulus to the erectile nerve was studied according to the method described in the reference (International Journal of Impotence Research (2002) 14, 251-255).

[20] = test system: rats with pulmonary arterial hypertension; test: Pulmonary arterial hypertension (PAH) rats, chronic oral administration; format: in vivo; settings: each dose group, FIG. 17
Text: as §1

[21] = High temperature, 5 days, listed as Compound Z (basic)
[22] = High temperature, 10 days, listed as Compound Z (basic)
[23] = Light exposure, 5 days, listed as Compound Z (basic)
[24] = Light exposure, 10 days, listed as Compound Z (basic)

- melting point: 162.5 to 163.3 °C
Molecule: CCCOc1ccc(S(=O)(=O)N(C)CCN2CCCC2)cc1-c1nc2c(CCC)nn(C)c2c(=O)[nH]1 (as salt: maleate) [Maleate of compound Z, 1-methyl-5-{2-propoxy-5-[[1-methyl-1-(2-pyrrolidin-1-yl)ethyl]aminosulfonyl]phenyl}-3-propyl-1,6-dihydro-7H-pyrazolo[4,3-D]pyrimidin-7-one maleate]

- pIC50 ([10]; PDE2): < 4.00
- IC50(PDEs)/IC50(PDE5) ([10]; PDE2 vs PDE5): >10000
- pIC50 ([11]; PDE9): < 4.00
- IC50(PDEs)/IC50(PDE5) ([11]; PDE9 vs PDE5): >10000
- pIC50 ([12]; PDE3): 4.66
- IC50(PDEs)/IC50(PDE5) ([12]; PDE3 vs PDE5): 9649
- pIC50 [1]: < 4.00
- IC50(PDEs)/IC50(PDE5) ([1]; PDE8 vs PDE5): >10000
- pIC50 ([13]; PDE10): < 4.00
- IC50(PDEs)/IC50(PDE5) ([13]; PDE10 vs PDE5): >10000
- purity ([6]; 0 day): 99.79%
- trait ([6]; 0 day): white
- purity ([6]; High humidity, 5 days): 99.79%
- trait ([6]; High humidity, 5 days): white
- purity ([6]; High humidity, 10 days): 99.80%
- trait ([6]; High humidity, 10 days): white
- purity ([6]; High temperature, 5 days): 99.69%
- trait ([6]; High temperature, 5 days): white
- purity ([6]; High temperature, 10 days): 99.76%
- trait ([6]; High temperature, 10 days): white
- purity ([6]; Light exposure, 5 days): 99.65%
- trait ([6]; Light exposure, 5 days): white
- purity ([6]; Light exposure, 10 days): 99.68%
- trait ([6]; Light exposure, 10 days): white
- chemical stability (in words) ([6]; light exposure): stable
- pIC50 ([14]; PDE6): 7.34
- IC50(PDEs)/IC50(PDE5) ([14]; PDE6 vs PDE5): 20
- hygroscopicity (in words) [7]: minimal hygroscopicity
- Moisture weight gain (%) [7]: 1.56%
- solubility ([8]; hydrochloric acid solution, pH 1, simulated gastric fluid, hydrochloric acid solution (pH 1.0), read-out: Solubility, hydrochloric acid solution (pH 1.0)): > 42 mg/mL
- solubility ([8]; mixed phosphate buffer solution, pH 6.86, aqueous buffer, mixed phosphate buffer solution (pH 6.86), read-out: Solubility, buffer solution (pH 6.86)): > 19.8 mg/mL
- solubility ([8]; pure water, pH 6.1, water, Pure water (pH 6.1), read-out: Solubility, Pure water (pH 6.1)): > 11 mg/mL
- Characters [9]: white solid
- Odor [9]: no bad smell
- pIC50 [2]: < 4.00
- IC50(PDEs)/IC50(PDE5) ([2]; PDE7 vs PDE5): >10000
- pIC50 ([15]; PDE5): 8.64
- activity and selectivity for PDE5 enzyme (in words) ([15]; in vitro enzyme inhibitors screening test): high activity and selectivity
- pIC50 ([17]; PDE11): 5.22
- IC50(PDEs)/IC50(PDE5) ([17]; PDE11 vs PDE5): 2671
- component [18]: constant
- crystal water [18]: no
- stability [18]: stable
- static [18]: no
- pIC50 [4]: 5.39
- IC50(PDEs)/IC50(PDE5) ([4]; PDE4 vs PDE5): 1785
- pIC50 [5]: 6.34
- IC50(PDEs)/IC50(PDE5) ([5]; PDE1 vs PDE5): 203
Molecule: CCCOc1ccc(S(=O)(=O)N(C)CCN2CCCC2)cc1-c1nc2c(CCC)nn(C)c2c(=O)[nH]1 [Maleate of compound Z, 1-methyl-5-{2-propoxy-5-[[1-methyl-1-(2-pyrrolidin-1-yl)ethyl]aminosulfonyl]phenyl}-3-propyl-1,6-dihydro-7H-pyrazolo[4,3-D]pyrimidin-7-one maleate]
- mean aortic pressure [16]: significantly reduce
- mean pulmonary artery pressure [16]: significantly reduce
- selectivity for the reduction of pulmonary artery pressure [16]: strong selectivity
- ICP/BP increasing rate (%) ([3]; 10 mg/kg): 80.99 ± 17.01 %
- ICP value (cavernous peak pressure) [19]: significantly increased
- ICP/BP values (cavernous peak pressure/carotid arterial blood pressure) [19]: significantly increased
- pulmonary arterial pressure compared with the model group [20]: significantly reduce
- pulmonary arterial pressure compared with the positive control group [20]: no significant difference

Further lines, the molecule ahead of its results:

Molecule: CCCc1nn(C)c2c(=O)[nH]c(-c3cc(S(=O)(=O)N4CCN(C)CC4)ccc3OCC)nc12 [Sildenafil, reference compound]
- pIC50 [1]: < 4.00
- pIC50 [2]: 4.33
- ICP/BP increasing rate (%) [3]: 73.10 ± 36.24 %
- pIC50 [4]: 5.23
- pIC50 [5]: 6.34

Molecule: CCCOc1ccc(S(=O)(=O)N(C)CCN2CCCC2)cc1-c1nc2c(CCC)nn(C)c2c(=O)[nH]1 [Compound Z, 1-methyl-5-{2-propoxy-5-[[1-methyl-1-(2-pyrrolidin-1-yl)ethyl]aminosulfonyl]phenyl}-3-propyl-1,6-dihydro-7H-pyrazolo[4,3-d]pyrimidin-7-one]
- trait ([6]; 0 day): white
- purity ([6]; 0 day, listed as Compound Z (basic)): 98.25%
- trait ([6]; High humidity, 5 days): white
- purity ([6]; High humidity, 5 days, listed as Compound Z (basic)): 98.02%
- trait ([6]; High humidity, 10 days): white
- purity ([6]; High humidity, 10 days, listed as Compound Z (basic)): 98.20%
- purity [6, 21]: 94.70%
- trait [6, 21]: pale yellow
- purity [6, 22]: 94.55%
- trait [6, 22]: yellow
- purity [6, 23]: 72.49%
- trait [6, 23]: pale yellow
- purity [6, 24]: 55.88%
- trait [6, 24]: pale yellow
- chemical stability (in words) ([6]; light exposure): poor chemical stability
- chemical stability (in words) ([6]; light exposure, listed as basic compound Z): poor stability
- degradation ([6]; light exposure, after 10 days): ~50%
- Moisture weight gain (%) ([7]; listed as Basic compound Z): 0.39%
- Solubility, Pure water (pH 6.1) ([8]; Pure water (pH 6.1), listed as Compound Z (basic)): insoluble
- Solubility, hydrochloric acid solution (pH 1.0) ([8]; hydrochloric acid solution (pH 1.0), listed as Compound Z (basic)): >21 mg/ml
- solubility (in words) [8]: poor water-solubility
- solubility (in words) ([8]; listed as basic compound Z): significantly less
- Solubility, buffer solution (pH 6.86) ([8]; mixed phosphate buffer solution (pH 6.86), listed as Compound Z (basic)): insoluble
- solubility ([8]; standard potassium hydrogen phthalate buffer solution, pH 4, aqueous buffer, potassium hydrogen phthalate buffer solution (pH 4.0), read-out: Solubility, buffer solution (pH 4.0)): > 5.88 mg/mL
- Characters [9]: white solid
- Odor [9]: pungent odor
- Odor ([9]; listed as compound Z): pungent odor
- ICP/BP increasing rate (%) ([3]; listed as basic compound Z, 10 mg/kg): 72.22 ± 19.28 %

Molecule: 1-methyl-5-{2-propoxy-5-[[1-methyl-1-(2-pyrrolidin-1-yl)ethyl]aminosulfonyl]phenyl}-3-propyl-1,6-dihydro-7H-pyrazolo[4,3-D]pyrimidin-7-one maleate
- hygroscopicity (in words) [7]: low moisture absorption; also recorded: no hygroscopicity
